In PMC4552634, “A New Set of Chemical Starting Points with Plasmodium falciparum Transmission-Blocking Potential for Antimalarial Drug Discovery” (PLoS ONE, 2015):
Several values for one entry are separate records, joined by “and”; a condition that tells them apart may be missing. Equal values may be shown once. Read-outs that look alike come from different tables or passages of the source.

Columns and labels:
HepG2 cells = assay: Cytotoxicity in HepG2 cells (intracellular ATP, ATPlite, 48 h); type: cell-based, human; settings: HepG2 cells; IC50 per ratio column head; unit inferred
Protocol: Cells were grown and maintained in EMEM (Sigma-Aldrich) supplemented with 2mM L-glutamine (Sigma-Aldrich) and 10% fetal calf serum (Perbio). […] Passages were routinely made upon reaching 80–90% confluence. For cytotoxicity experiments, cells were seeded onto 96-well clear bottom black plates coated with type I collagen (Biocoat, Becton Dickinson) at a cell density of 20,000 cells/well.
To determine cytotoxic effects, represented by the Tox50 value (the concentration of drug that reduces cell viability by 50%), cells were exposed to serial dilutions of compounds for 48 h at 37°C. The assay medium was as previously described, but supplemented with 5% fetal calf serum instead of 10%. […] In the presence of ATP, luminescence is emitted as the reaction described earlier for the BacTiter-Glo kit. Percentages of inhibition were calculated relative to vehicle control wells.

[1] = test system: P. falciparum stage V gametocytes; assay: Gametocytocidal ATP bioluminescence assay (single point 5 μM and 1 μM, dose-response); type: cell-based, Plasmodium falciparum; settings: for Ratio IC50 HepG2/IC50 P. falciparum: IC50 HepG2 divided by IC50 P. falciparum gametocytes
Protocol: Purified stage IV-V gametocytes were obtained as previously described [10]. Single point ATP bioluminescence assay and dose–response of positive hits was determined in accordance with the previously published protocol [10].

[2] = test system: P. falciparum asexual stages; settings: asexual stages; TCAMS data; read-out: IC50 asexual; cited from earlier work
[3] = P. falciparum gametocytes, average, read-out: IC50 Pf Gametocytes average, IC50 (µM) average
[4] = sexual stages (gametocytes), dose-response, read-out: IC50 sexual

Structure (SMILES) | IC50 (HepG2 cells) | Ratio IC50 HepG2/IC50 P. falciparum [1] | IC50 [1, 3] | IC50 [1, 4] | IC50 [2]
CCN(CC)CCOc1ccc(C(O)(C#CC(O)(c2ccccc2)c2ccc(OCCN(CC)CC)cc2)c2ccccc2)cc1 (stereo not shown) [TCMDC-137197] | 3.67 µM | 5.34 | 0.69 µM | 0.687 µM | 1.31 µM
FC(F)(F)COc1c(CCNCCCCNCCc2ccc3ccccc3c2OCC(F)(F)F)ccc2ccccc12 [TCMDC-137169] | 2.8 µM | 28 | 0.1 µM |  | 0.348 µM
CCc1c(CCNCCCCCCNC(C)(C)Cc2ccc3c(c2CC)OCO3)ccc(OC)c1OC [TCMDC-132055] | 4.37 µM | 16 | 0.27 µM | 0.266 µM | 0.934 µM
COc1ccccc1CCNc1nc(C)cc(N[C@@H](Cc2ccccc2)C(=O)NCCOc2ccccc2)n1 [TCMDC-134862] | 11.1 µM | <1 | > 10 µM |  | 1.21 µM
CCn1c(-c2nonc2N)nc2c(-c3cccc(NC(=O)Nc4cccc(C#N)c4)c3)ncc(OCCCN)c21 [TCMDC-136195] | 24.7 µM | 7 | 3.51 µM | 3.52 µM | 0.669 µM
COc1ccc(CCNCCCCCCNCCc2ccc(-c3ccccc3)cc2)cc1OC [TCMDC-131267] | 3.25 µM | 19 | 0.17 µM | 0.173 µM | 0.958 µM
CC(C)(C)c1ccc(-c2cc3c(ccc4nc(N)nc(N)c43)[nH]2)cc1 [TCMDC-137977] | 3.26 µM | 6 | 0.55 µM |  | 0.113 µM
CN(C)CCN(Cc1ccccc1-c1ccc(CNCCc2ccccc2)cc1)C(=O)c1ccccc1 [TCMDC-140532] | 7.54 µM | 10 | 0.78 µM |  | 1.71 µM
COc1cccc(CCc2c(CCNCCCCCCNCCc3ccccc3)ccc(OC)c2OC)c1 [TCMDC-132105] | 7.7 µM | 44 | 0.18 µM | 0.177 µM | 0.721 µM
O=C(NCCCCN1CCC(c2c[nH]c3ccc(-c4ccccc4)cc23)CC1)c1ccc(-c2ccccc2)cc1 [TCMDC-139064] | 9.4 µM | 5 | 1.83 µM |  | 0.985 µM
CN1CCCc2cc(NC(=O)C=Cc3ccc(-c4ccc(F)cc4F)o3)ccc2C1 [TCMDC-134051] | 13.4 µM | <1 | > 10 µM |  | 0.783 µM
CC(Cc1ccc(COc2ccc(CC(CO)NCCc3cccc(Cl)c3)cc2)cc1)NCCc1cccc(Cl)c1 (stereo not shown) [TCMDC-139844] | 3.5 µM | 2.53 | 1.39 µM | 1.39 µM | 0.821 µM
CCCCCOc1ccc(C(O)C(CCC(CN2CCCCCC2)C(O)c2ccc(OCCCCC)cc2)CN2CCCCCC2)cc1 (stereo not shown) [TCMDC-124174] | 6.8 µM | 5.67 | 1.2 µM |  | 0.768 µM
CC(C)NCc1ccc(OCc2cccc(COc3ccc(CNC(C)C)cc3I)c2)c(I)c1 [TCMDC-137259] | 4.9 µM | 23 | 0.21 µM |  | 0.092 µM
CCn1c(-c2nonc2N)nc2c(-c3cccc(NC(=O)Nc4ccccc4OC)c3)ncc(OCCCN)c21 [TCMDC-136190] | 5.9 µM | 14 | 0.44 µM | 0.435 µM | 1 µM
CC(C)(C)c1ccc(-c2nc3c(ccc4nc(N)nc(N)c43)[nH]2)cc1 [TCMDC-137984] | 3.85 µM | 19 | 0.21 µM | 0.205 µM | 0.158 µM

Structure (SMILES) | IC50 (HepG2 cells) | Ratio IC50 HepG2/IC50 P. falciparum [1] | IC50 [1, 3] | IC50 [1, 4] | IC50 [2]
O=S(=O)(NCCN1CCCC1)c1cccc(-c2ccc(CNCc3ccc(F)cc3)cc2)c1 [TCMDC-132289] | 7.4 µM | 2.75 | 2.69 µM |  | 0.234 µM
O=C(NCCc1ccccc1)N(Cc1cccc(-c2ccc(CNC3CCCC3)cc2)c1)C1CCN(Cc2ccccc2)CC1 [TCMDC-140618] | 7.42 µM | 5.66 | 1.31 µM |  | 0.404 µM
O=C(Nc1ccc(Cl)c(Cl)c1)Nc1ccccc1N1CCNCC1 [TCMDC-133727] | 11.2 µM | 1.51 | 7.42 µM |  | 0.709 µM
O=C(CC1CCCC1)N(Cc1ccc(-c2ccc(CNC3Cc4ccccc4C3)cc2)cc1)CC1CCCCN1 (stereo not shown) [TCMDC-141446] | 6.47 µM | 6.45 | 1 µM | 1 µM | 1.06 µM
CN(C)CCCOc1ccc(CN2CCC(c3c[nH]c4ccc(NCC5CCCCC5)cc34)CC2)cc1 [TCMDC-140737] | 6.8 µM | 14 | 0.5 µM |  | 0.678 µM
CC(CCCC(=O)Nc1ccc(CC(C)NCCc2cccc(Cl)c2)cc1)NCCc1cccc(Cl)c1 (stereo not shown) [TCMDC-139798] | 4.5 µM | 5.52 | 0.82 µM | 0.815 µM | 0.625 µM
C=CC(C)C1OC(=O)c2cc(OC)cc(OC)c21 (stereo not shown) [TCMDC-138676] | 0.8 µM | 2 | 0.4 µM |  | 
CCOc1c(CCNCCCCNCCc2ccc3ccccc3c2OCC)ccc2ccccc12 [TCMDC-137759] | < 1.56 µM | <9 | 0.17 µM | 0.173 µM | 0.596 µM
COc1cc2ccccc2c(OC)c1CCNCCCCNCCc1c(OC)cc2ccccc2c1OC [TCMDC-137842] | 3.2 µM | 10 | 0.31 µM | 0.305 µM | 0.891 µM
COc1ccc(C[C@H]2NC[C@H](O)[C@H]2OC(C)=O)cc1 [TCMDC-125504] | 0.19 µM | 1.1 | 0.17 µM | 0.173 µM | 0.138 µM
c1ccc2c(NCCCCCCCCCNc3ccnc4ccccc34)ccnc2c1 [TCMDC-137750] | 2.9 µM | 2.83 | 1.03 µM | 1.02 µM | 0.115 µM
CCCOc1ccc2ccccc2c1CNCCCCCCNCc1c(OCCC)ccc2ccccc12 [TCMDC-137966] | 3.1 µM | 9 | 0.34 µM |  | 0.791 µM
CC(C)(C)N1CCC(N(Cc2ccc(-c3ccc(C(F)(F)F)cc3)cc2)C(=O)Cn2c(CCc3cccc(F)c3F)cc(=O)c3cccnc32)CC1 [TCMDC-136011] | 3.1 µM | 1.3 | 2.39 µM |  | 0.705 µM
CC(=O)c1ccc2nc[nH]c(=O)c2c1 [TCMDC-138172] | < 1.56 µM | <3.9 | 0.4 µM |  | 0.722 µM
CCCCOc1ccc(CNCCCCCCNCc2ccc(OCCCC)c3ccccc23)c2ccccc12 [TCMDC-137281] | 3.04 µM and 2.8 µM |  |  |  | 1.13 µM
CCCCCOc1ccc(C(=NC)N(CCCCC)CCCCC)c2ccccc12 [TCMDC-137703] | 6.3 µM | 7 | 0.89 µM | 0.885 µM | 
